Target: interaction between p53 and MDM2 proteins (Homo sapiens, UniProt Q00987)
Assay: HTRF assay of inhibition of p53-MDM2 interaction
Format: binding
Conditions: GST-MDM2 and biotinylated p53 peptide, bsa: 0.02%
Procedure: The ability of the compounds to inhibit the interaction between p53 and MDM2 proteins was measured by an HTRF (homogeneous time-resolved fluorescence) assay in which recombinant GST-tagged MDM2 binds to a peptide that resembles the MDM2-interacting region of p53. Binding of GST-MDM2 protein and p53-peptide (biotinylated on its N-terminal end) is registered by the FRET (fluorescence resonance energy transfer) between Europium (Eu)-labeled anti-GST antibody and streptavidin-conjugated Allophycocyanin (APC).
Add 20 uL streptavidin-APC and Eu-anti-GST antibody mixture (6 nM Eu-anti-GST and 60 nM streptavidin-APC working solution) in TBS buffer with 0.2% BSA, shake at room temperature for 30 minutes and read using a TRF-capable plate reader at
If not specified, the reagents were purchased from Sigma Chemical Co.

Chain of interaction between p53 and MDM2 proteins (Q00987 whole entry): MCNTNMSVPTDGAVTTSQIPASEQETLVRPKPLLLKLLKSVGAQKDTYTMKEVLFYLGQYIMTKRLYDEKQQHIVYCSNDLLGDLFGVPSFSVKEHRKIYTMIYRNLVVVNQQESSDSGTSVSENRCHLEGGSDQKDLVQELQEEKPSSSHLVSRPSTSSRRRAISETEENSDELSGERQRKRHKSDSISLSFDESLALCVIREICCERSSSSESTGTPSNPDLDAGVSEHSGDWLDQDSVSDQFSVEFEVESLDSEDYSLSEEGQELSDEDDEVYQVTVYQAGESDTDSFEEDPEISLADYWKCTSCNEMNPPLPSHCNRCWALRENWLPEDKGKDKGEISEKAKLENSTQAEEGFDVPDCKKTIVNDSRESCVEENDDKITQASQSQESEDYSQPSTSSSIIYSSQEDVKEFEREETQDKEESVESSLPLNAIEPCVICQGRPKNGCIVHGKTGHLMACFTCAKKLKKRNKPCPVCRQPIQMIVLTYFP

Row | Structure (SMILES) | IC50
1 | COC(=O)c1ccc(NC(=O)[C@@H]2N[C@@H](CC(C)(C)C)[C@@]3(C(=O)Nc4cc(Cl)cnc43)[C@H]2c2cccc(Br)c2F)c(OC)c1 (racemic) [Example 66, methyl rac-4-{(2S,3R,4S,5R)-4-(3-bromo-2-fluorophenyl)-6′-chloro-2-neopentyl-2′-oxo-1′,2′-dihydrospiro[pyrrolidine-3,3′-pyrrolo[3,2-b]pyridine]-5-ylcarboxamido}-3-methoxybenzoate] | 1830 nM
2 | COc1cc(OCCO)ccc1NC(=O)[C@@H]1N[C@@H](CC(C)(C)C)[C@@]2(C(=O)Nc3cc(Cl)ncc32)[C@H]1c1cccc(Cl)c1F (racemic) [Example 117, rac-(2S,3R,4S,5R)-6′-chloro-4-(3-chloro-2-fluorophenyl)-N-(4-(2-hydroxyethoxy)-2-methoxyphenyl)-2-neopentyl-2′-oxo-1′,2′-dihydrospiro[pyrrolidine-3,3′-pyrrolo[3,2-c]pyridine]-5-carboxamide] | 14 nM
3 | COC(=O)c1ccc(NC(=O)[C@@H]2N[C@@H](CC(C)(C)C)[C@@]3(C(=O)Nc4cc(OC)ncc43)[C@H]2c2cccc(Cl)c2F)c(OC)c1 (racemic) [Example 110, methyl rac-4-((2S,3R,4S,5R)-4-(3-chloro-2-fluorophenyl)-6′-methoxy-2-neopentyl-2′-oxo-1′,2′-dihydrospiro[pyrrolidine-3,3′-pyrrolo[3,2-c]pyridine]-5-ylcarboxamido)-3-methoxybenzoate] | 13.6 nM
4 | COc1cc(C(=O)O)ccc1NC(=O)[C@@H]1N[C@@H](CC(C)(C)C)[C@@]2(C(=O)Nc3cc(C)ncc32)[C@H]1c1cccc(Cl)c1F (racemic) [Example 120, rac-4-((2S,3R,4S,5R)-4-(3-chloro-2-fluorophenyl)-6′-methyl-2-neopentyl-2′-oxo-1′,2′-dihydrospiro[pyrrolidine-3,3′-pyrrolo[3,2-c]pyridine]-5-ylcarboxamido)-3-methoxybenzoic acid] | 12 nM
5 | COC(=O)c1ccc(NC(=O)[C@@H]2N[C@@H](CC(C)(C)C)[C@@]3(C(=O)Nc4cc(F)cnc43)[C@H]2c2cccc(Cl)c2F)c(OC)c1 (racemic) [Example 83, methyl rac-4-((2S,3S,4S,5R)-4-(3-chloro-2-fluorophenyl)-6′-fluoro-2-neopentyl-2′-oxo-1′,2′-dihydrospiro[pyrrolidine-3,3′-pyrrolo[3,2-b]pyridine]-5-ylcarboxamido)-3-methoxybenzoate] | 19.5 nM
6 | COc1cc(C(N)=O)ccc1NC(=O)[C@@H]1N[C@@H](CC(C)(C)C)[C@@]2(C(=O)Nc3cc(Cl)cnc32)[C@H]1c1cccc(Cl)c1 (racemic) [Example 63, rac-(2S,3S,4R,5R)-N-(4-carbamoyl-2-methoxyphenyl)-6′-chloro-4-(3-chlorophenyl)-2-neopentyl-2′-oxo-1′,2′-dihydrospiro[pyrrolidine-3,3′-pyrrolo[3,2-b]pyridine]-5-carboxamide] | 14.6 nM
7 | COc1cc(C(N)=O)ccc1NC(=O)[C@@H]1N[C@@H](CC(C)(C)C)[C@@]2(C(=O)Nc3cc(F)cnc32)[C@H]1c1cccc(Cl)c1F (racemic) [Example 86, rac-(2S,3S,4S,5R)-N-(4-carbamoyl-2-methoxyphenyl)-4-(3-chloro-2-fluorophenyl)-6′-fluoro-2-neopentyl-2′-oxo-1′,2′-dihydrospiro[pyrrolidine-3,3′-pyrrolo[3,2b]pyridine]-5-carboxamide] | 18.7 nM
8 | COc1cc2c(cn1)[C@@]1(C(=O)N2)[C@H](CC(C)(C)C)N[C@@H](C(=O)Nc2ccc(C(N)=O)cc2OC)[C@@H]1c1cccc(Cl)c1F (racemic) [Example 115, rac-(2S,3R,4S,5R)-N-(4-carbamoyl-2-methoxyphenyl)-4-(3-chloro-2-fluorophenyl)-6′-methoxy-2-neopentyl-2′-oxo-1′,2′-dihydrospiro[pyrrolidine-3,3′-pyrrolo[3,2-c]pyridine]-5-carboxamide] | 127 nM
9 | COc1cc(C(=O)O)ccc1NC(=O)[C@@H]1N[C@@H](CC(C)(C)C)[C@@]2(C(=O)Nc3cc(O)ncc32)[C@H]1c1cccc(Cl)c1F (racemic) [Example 114, rac-4-((2S,3R,4S,5R)-4-(3-chloro-2-fluorophenyl)-6′-hydroxy-2-neopentyl-2′-oxo-1′,2′-dihydrospiro[pyrrolidine-3,3′-pyrrolo[3,2-c]pyridine]-5-ylcarboxamido)-3-methoxybenzoic acid] | > 10000 nM
10 | COc1cc2c(cn1)[C@@]1(C(=O)N2)[C@H](CC(C)(C)C)N[C@@H](C(=O)Nc2ccc(C(=O)O)cc2OC)[C@@H]1c1cccc(Cl)c1F (racemic) [Example 111, rac-4-((2S,3R,4S,5R)-4-(3-chloro-2-fluorophenyl)-6′-methoxy-2-neopentyl-2′-oxo-1′,2′-dihydrospiro[pyrrolidine-3,3′-pyrrolo[3,2-c]pyridine]-5-ylcarboxamido)-3-methoxybenzoic acid] | 7 nM
11 | COC(=O)c1ccc(NC(=O)[C@@H]2N[C@@H](CC(C)(C)C)[C@@]3(C(=O)Nc4ncccc43)[C@H]2c2cccc(Cl)c2F)c(OC)c1 (racemic) [Example 13, methyl rac-4-((2S,3R,4S,5R)-4-(3-chloro-2-fluorophenyl)-2-neopentyl-2′-oxo-1′,2′-dihydrospiro[pyrrolidine-3,3′-pyrrolo[2,3-b]pyridine]-5-ylcarboxamido)-3-methoxybenzoate] | 30.3 nM
12 | COc1cc(OCCO)ccc1NC(=O)[C@@H]1N[C@@H](CC(C)(C)C)[C@@]2(C(=O)Nc3cc(Cl)cnc32)[C@H]1c1cccc(Cl)c1F [Example 75, (2S,3S,4S,5R)-6′-chloro-4-(3-chloro-2-fluorophenyl)-N-(4-(2-hydroxyethoxy)-2-methoxyphenyl)-2-neopentyl-2′-oxo-1′,2′-dihydrospiro[pyrrolidine-3,3′-pyrrolo[3,2-b]pyridine]-5-carboxamide] | 6.4 nM
13 | COC(=O)c1ccc(NC(=O)[C@@H]2N[C@@H](CC(C)(C)C)[C@]3(C(=O)Nc4nc(Cl)ncc43)[C@H]2c2cccc(Cl)c2F)c(OC)c1 (racemic) [Example 91, methyl rac-4-{(2S,3S,4S,5R)-2′-chloro-4-(3-chloro-2-fluorophenyl)-2-neopentyl-6′-oxo-6′,7′-dihydrospiro[pyrrolidine-3,5′-pyrrolo[2,3-d]pyrimidine]-5-ylcarboxamido}-3-methoxybenzoate] | 10.7 nM
14 | COc1cc(C(=O)O)ccc1NC(=O)[C@@H]1N[C@@H](CC(C)(C)C)[C@@]2(C(=O)Nc3ccc(Cl)nc32)[C@H]1c1cccc(Cl)c1F (racemic) [Example 47, rac-4-((2S,3S,4S,5R)-5′-chloro-4-(3-chloro-2-fluorophenyl)-2-neopentyl-2′-oxo-1′,2′-dihydrospiro[pyrrolidine-3,3′-pyrrolo[3,2-b]pyridine]-5-ylcarboxamido)-3-methoxybenzoic acid] | 34.5 nM
15 | COC(=O)c1ccc(NC(=O)[C@@H]2N[C@@H](CC(C)(C)C)[C@@]3(C(=O)Nc4ccncc43)[C@H]2c2cccc(Cl)c2F)c(OC)c1 (racemic) [Example 6, methyl rac-4-((2S,3R,4S,5R)-4-(3-chloro-2-fluorophenyl)-2-neopentyl-2′-oxo-1′,2′-dihydrospiro[pyrrolidine-3,3′-pyrrolo[3,2-c]pyridine]-5-ylcarboxamido)-3-methoxybenzoate] | 32.4 nM
16 | COc1cc(OCCOC(C)=O)ccc1NC(=O)[C@@H]1N[C@@H](CC(C)(C)C)[C@@]2(C(=O)Nc3cc(Cl)ncc32)[C@H]1c1cccc(Cl)c1F (racemic) [Example 116, rac-2-(4-((2S,3R,4S,5R)-6′-chloro-4-(3-chloro-2-fluorophenyl)-2-neopentyl-2′-oxo-1′,2′-dihydrospiro[pyrrolidine-3,3′-pyrrolo[3,2-c]pyridine]-5-ylcarboxamido)-3-methoxyphenoxy)ethyl acetate] | 12 nM
17 | COc1cc(C(=O)O)ccc1NC(=O)[C@@H]1N[C@@H](CC(C)(C)C)[C@@]2(C(=O)Nc3c(Cl)ccnc32)[C@H]1c1cccc(Cl)c1F (racemic) [Example 124, rac-4-((2S,3S,4S,5R)-7′-chloro-4-(3-chloro-2-fluorophenyl)-2-neopentyl-2′-oxo-1′,2′-dihydrospiro[pyrrolidine-3,3′-pyrrolo[3,2-b]pyridine]-5-ylcarboxamido)-3-methoxybenzoic acid] | 1010 nM
18 | COC(=O)c1ccc(NC(=O)[C@@H]2N[C@@H](CC(C)(C)C)[C@@]3(C(=O)Nc4cc(O)ncc43)[C@H]2c2cccc(Cl)c2F)c(OC)c1 (racemic) [Example 113, methyl rac-4-((2S,3R,4S,5R)-4-(3-chloro-2-fluorophenyl)-6′-hydroxy-2-neopentyl-2′-oxo-1′,2′-dihydrospiro[pyrrolidine-3,3′-pyrrolo[3,2-c]pyridine]-5-ylcarboxamido)-3-methoxybenzoate] | > 10000 nM
19 | COC(=O)c1ccc(NC(=O)[C@@H]2N[C@@H](CC(C)(C)C)[C@@]3(C(=O)Nc4nc(Cl)ccc43)[C@H]2c2cccc(Cl)c2F)c(OC)c1 (racemic) [Example 35, methyl rac-4-((2S,3R,4S,5R)-6′-chloro-4-(3-chloro-2-fluorophenyl)-2-neopentyl-2′-oxo-1′,2′-dihydrospiro[pyrrolidine-3,3′-pyrrolo[2,3-b]pyridine]-5-ylcarboxamido)-3-methoxybenzoate] | 14.5 nM
20 | COC(=O)c1ccc(NC(=O)[C@@H]2N[C@@H](CC(C)(C)C)[C@@]3(C(=O)Nc4cc(C)ncc43)[C@H]2c2cccc(Cl)c2F)c(OC)c1 (racemic) [Example 119, methyl rac-4-((2S,3R,4S,5R)-4-(3-chloro-2-fluorophenyl)-6′-methyl-2-neopentyl-2′-oxo-1′,2′-dihydrospiro[pyrrolidine-3,3′-pyrrolo[3,2-c]pyridine]-5-ylcarboxamido)-3-methoxybenzoate] | 11.6 nM
